Measurements taken from ChEMBL document CHEMBL1275486, “Kinetic characterization of VIM-7, a divergent member of the VIM metallo-beta-lactamase family” (Antimicrob Agents Chemother, 2008).

How the values were obtained:
[1] = tested on: Escherichia coli; assay: Activity of Escherichia coli beta-lactamase VIM-1 by spectrophotometry
[2] = tested on: Escherichia coli; assay: Ratio of Kcat to Km for Escherichia coli beta-lactamase VIM-1 by spectrophotometry

Compound	Km [1] [µM]	kcat [1] [s⁻¹]	kcat/Km [2] [M⁻¹ s⁻¹]
CO[C@@]1(NC(=O)C(C(=O)O)c2ccc(O)cc2)C(=O)N2C(C(=O)O)=C(CSc3nnnn3C)CO[C@@H]21 (stereo not given in full)	450	43	96000
C[C@@H](O)[C@H]1C(=O)N2C(C(=O)O)=C(S[C@@H]3CN[C@H](C(=O)N(C)C)C3)[C@H](C)[C@H]12	50	13	260000

The remaining lines, values ahead:

Km [1] [µM]	kcat [1] [s⁻¹]	kcat/Km [2] [M⁻¹ s⁻¹]	Compound
150	550	3.7e+06	CO/N=C(\C(=O)N[C@@H]1C(=O)N2C(C(=O)[O-])=C(C[N+]3(C)CCCC3)CS[C@H]12)c1csc(N)n1
130	26	200000	CO[C@@]1(NC(=O)Cc2cccs2)C(=O)N2C(C(=O)O)=C(COC(N)=O)CS[C@@H]21
1.5	0.2	130000	C[C@@H](O)[C@H]1C(=O)N2C(C(=O)O)=C(SCCNC=N)C[C@H]12
